Data reported in patent US8859530B2, “Co-administration of steroids and zoledronic acid to prevent and treat osteoarthritis” (Voltarra Pharmaceuticals, Inc., priority 2013, dated 2014).

Experiments:
arthritis pain = conditions: cited from earlier work
patients = conditions: Zometa Prescribing Information; cited from earlier work
[1] = system: subjects with knee osteoarthritis; assay: Single blind, single center study of intravenous ZP or ZA in knee osteoarthritis; assay type: in vivo, human
Protocol: In a further study, this one, a single blind, single center study, 20 subjects with knee osteoarthritis were randomized to either intravenous ZP or ZA in a 1:1 ratio. Subjects were followed for six months. Efficacy was measured by change in pain in 100 mm visual analogue score (VAS) from baseline (mean values). Patients were asked about the level of pain without taking rescue medications (NSAIDS or tramadol). Bone mineral density (BMD) was determined at baseline and six months to detect any effect on bone.

[2] = in vivo; cited from earlier work
[3] = system: subjects with osteoarthritis; assay: Joint pain (VAS scale) in the osteoarthritis subjects of the first study; assay type: in vivo, human; conditions: six months after the single infusion (one ZP subject up to one year); three ZP, two Zoledronic Acid subjects with osteoarthritis
Protocol: Of the 8 subjects, five had osteoarthritis. Of these five, three were treated with ZP and two with Zoledronic Acid.

[4] = system: patients with osteoporosis; assay: Zoledronic Acid alone or with prednisone (ZP), single infusion in osteoporosis patients: post-dosing syndrome; assay type: in vivo, human; conditions: four patients per arm
Protocol: Eight patients with osteoporosis were treated with a single infusion of Zoledronic Acid alone (four patients) or with a single infusion of the combination of prednisone and Zoledronic Acid (ZP, four patients).

Compound | effect on arthritis pain (arthritis pain; IV, by itself) | duration of effect (arthritis pain; in vivo) | patients affected by post-dosing syndrome (PDS) (patients) | ΔBMD ([1]; bone mineral density, baseline versus six months) | Δ Mean VAS ([1]; change in pain in 100 mm visual analogue score from baseline (mean values), six months follow-up, without rescue medications) | PDS (# reporting/total) ([1]; intravenous, 10 subjects per cohort, knee osteoarthritis) | half-life (t1/2α) [2] | change in joint pain (VAS scale) [3] | patients suffering from post-dosing syndrome (PDS) [4]
C[C@]12C=CC(=O)C=C1CC[C@@H]1[C@@H]2[C@@H](O)C[C@@]2(C)[C@H]1CC[C@]2(O)C(=O)CO [Prednisolone] | no effect on arthritis pain | transient, less than a day | – | – | – | – | – | – | –
O=P(O)(O)C(O)(Cn1ccnc1)P(=O)(O)O [Zoledronic Acid] | – | – | ≤ 44% | 0 | −10 mm | 6/10 | about 0.24 hours | same (one) or worse (one) level of pain | All four
